Test results published in ChEMBL document CHEMBL5346906, “Discovery of novel tranylcypromine-based derivatives as LSD1 inhibitors for gastric cancer treatment” (Eur J Med Chem, 2023).
The source made the active and inactive calls. The calls are words filed in the database; no cut-off is given here.

How the values were obtained:
MGC-803 [1] = experiment: Induction of mitochondrial membrane potential depolarization in human MGC-803 assessed as early apoptotic cells measured at 24 micromol/L for 20 mins by JC-1 staining based flow cytometric analysis (reference value: 4.52%); type: functional; settings: dose 24 µmol/L, at 24 µM
MGC-803 [2] = experiment: Induction of apoptosis in human MGC-803 cells assessed as morphological change in cell nucleus incubated at 8 to 24 micromol/L for 48 hrs measured by DAPI staining analysis; type: functional, cell-based; settings: dose 8-24 µmol/L
MGC-803 [3] = experiment: Induction of cell differentiation in human MGC-803 cells assessed as increase in CD86 level at 24 micromol/L incubated for 48 hrs by flow cytometric analysis (reference value: 60%); type: functional; settings: dose 24 µmol/L, at 24 µM
[4] = target: T1, Lysine-specific histone demethylase 1A (Homo sapiens, UniProt O60341); experiment: Inhibition of LSD1 in human MGC-803 cells assessed as increase in dimethylation of H3K4; type: cell-based; settings: dose 0-24 µmol/L
MGC-803 [5] = experiment: Induction of apoptosis in human MGC-803 cells assessed as viable cells at 16 micromol/L for 48 hrs by annexinV-FITC/PI staining based flow cytometric analysis (reference value: 95.54%); type: functional; settings: MGC-803, 48 h, dose 16 µmol/L, read-out: Activity
MGC-803 [6] = experiment: Induction of apoptosis in human MGC-803 cells assessed as early apoptotic cells at 8 micromol/L for 48 hrs by annexinV-FITC/PI staining based flow cytometric analysis (reference value: 2.92%); type: functional; settings: dose 8 µmol/L, at 8 µM
MGC-803 [7] = experiment: Induction of mitochondrial membrane potential depolarization in human MGC-803 assessed as viable cells measured at 8 micromol/L for 20 mins by JC-1 staining based flow cytometric analysis (reference value: 0.40%); type: functional; settings: MGC-803, 20 min, dose 8 µmol/L, read-out: Activity
MGC-803 [8] = experiment: Induction of mitochondrial membrane potential depolarization in human MGC-803 assessed as viable cells measured at 24 micromol/L for 20 mins by JC-1 staining based flow cytometric analysis (reference value: 0.40%); type: functional; settings: MGC-803, 20 min, dose 24 µmol/L, read-out: Activity
MGC-803 [9] = experiment: Induction of apoptosis in human MGC-803 cells assessed as early apoptotic cells at 24 micromol/L for 48 hrs by annexinV-FITC/PI staining based flow cytometric analysis (reference value: 2.92%); type: functional; settings: dose 24 µmol/L, at 24 µM
[10] = target: T2, Amine oxidase [flavin-containing] B (Homo sapiens, UniProt P27338); experiment: Inhibition of MAO-B (unknown origin) measured by MAO-GloTM method
T2 sequence (P27338 whole entry): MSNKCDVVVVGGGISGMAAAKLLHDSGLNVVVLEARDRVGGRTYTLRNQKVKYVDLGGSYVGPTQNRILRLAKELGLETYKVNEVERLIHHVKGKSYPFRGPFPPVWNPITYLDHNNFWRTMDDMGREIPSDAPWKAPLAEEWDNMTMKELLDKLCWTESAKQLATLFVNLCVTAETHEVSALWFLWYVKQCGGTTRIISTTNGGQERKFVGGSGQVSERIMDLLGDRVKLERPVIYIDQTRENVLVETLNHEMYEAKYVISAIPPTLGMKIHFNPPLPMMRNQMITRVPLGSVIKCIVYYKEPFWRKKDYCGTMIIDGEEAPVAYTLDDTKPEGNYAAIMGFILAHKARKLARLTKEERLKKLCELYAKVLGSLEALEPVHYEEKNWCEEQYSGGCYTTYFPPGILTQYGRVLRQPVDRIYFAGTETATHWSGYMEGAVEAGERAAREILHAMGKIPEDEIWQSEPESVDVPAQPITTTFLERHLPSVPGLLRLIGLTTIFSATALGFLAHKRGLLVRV

MGC-803 [11] = experiment: Induction of mitochondrial membrane potential depolarization in human MGC-803 assessed as necrotic cells measured at 16 micromol/L for 20 mins by JC-1 staining based flow cytometric analysis (reference value: 0.00%); type: functional; settings: dose 16 µmol/L, at 16 µM
MGC-803 [12] = experiment: Induction of cell differentiation in human MGC-803 cells assessed as decrease in nucleoplasmic ratio of cells incubated for 6 days measured by Giemsa staining method; type: functional, cell-based; settings: dose 2-4 µmol/L, time 6.0 day
[13] = target: T1, Lysine-specific histone demethylase 1A; experiment: Inhibition of LSD1 in human MGC-803 cells assessed as increase in dimethylation of H3K9; type: cell-based; settings: dose 0-24 µmol/L
MGC-803 [14] = experiment: Induction of apoptosis in human MGC-803 cells assessed as decrease in anti-apoptotic c-IAP1 expression at 8 to 24 micromol/L; type: functional, cell-based; settings: dose 8-24 µmol/L
MGC-803 [15] = experiment: Induction of mitochondrial membrane potential depolarization in human MGC-803 assessed as late apoptotic cells measured at 16 micromol/L for 20 mins by JC-1 staining based flow cytometric analysis (reference value: 94.98%); type: functional; settings: dose 16 µmol/L, at 16 µM
[16] = target: T1, Lysine-specific histone demethylase 1A; experiment: Inhibition of LSD1 in human MGC-803 cells assessed as increase in mono methylation of H3K9; type: cell-based; settings: dose 0-24 µmol/L
[17] = target: T1, Lysine-specific histone demethylase 1A; experiment: Inhibition of LSD1 in human MGC-803 cells assessed as increase in mono methylation of H3K4; type: cell-based; settings: dose 0-24 µmol/L
MGC-803 [18] = experiment: Induction of apoptosis in human MGC-803 cells assessed as early apoptotic cells at 16 micromol/L for 48 hrs by annexinV-FITC/PI staining based flow cytometric analysis (reference value: 2.92%); type: functional; settings: dose 16 µmol/L, at 16 µM
MGC-803 [19] = experiment: Induction of apoptosis in human MGC-803 cells assessed as decrease in capase9 expression at 8 to 24 micromol/L; type: functional, cell-based; settings: dose 8-24 µmol/L
[20] = target: T1, Lysine-specific histone demethylase 1A; experiment: Inhibition of recombinant LSD1 (unknown origin) preincubated for 10 mins in presence of H3K4Me2 measured after 30 mins by measuring fluorescence intensity by fluorescence based microplate reader
MGC-803 [21] = experiment: Antiproliferative activity against human MGC-803 cells incubated for 48 hrs measured by MTT assay; type: functional, cell-based; settings: MGC-803, 48 h
MGC-803 [22] = experiment: Induction of apoptosis in human MGC-803 cells assessed as late apoptotic cells at 24 micromol/L for 48 hrs by annexinV-FITC/PI staining based flow cytometric analysis (reference value: 1.32%); type: functional; settings: dose 24 µmol/L, at 24 µM
MGC-803 [23] = experiment: Induction of mitochondrial membrane potential depolarization in human MGC-803 assessed as late apoptotic cells measured at 8 micromol/L for 20 mins by JC-1 staining based flow cytometric analysis (reference value: 94.98%); type: functional; settings: dose 8 µmol/L, at 8 µM
MGC-803 [24] = experiment: Induction of apoptosis in human MGC-803 cells assessed as viable cells at 8 micromol/L for 48 hrs by annexinV-FITC/PI staining based flow cytometric analysis (reference value: 95.54%); type: functional; settings: MGC-803, 48 h, dose 8 µmol/L, read-out: Activity
MGC-803 [25] = experiment: Induction of apoptosis in human MGC-803 cells assessed as viable cells at 24 micromol/L for 48 hrs by annexinV-FITC/PI staining based flow cytometric analysis (reference value: 95.54%); type: functional; settings: MGC-803, 48 h, dose 24 µmol/L, read-out: Activity
MGC-803 [26] = experiment: Induction of apoptosis in human MGC-803 cells assessed as cell death incubated at 8 to 24 micromol/L for 48 hrs measured by Calcein-AM/PI staining analysis; type: functional, cell-based; settings: dose 8-24 µmol/L
MGC-803 [27] = experiment: Induction of apoptosis in human MGC-803 cells assessed as necrotic cells at 24 micromol/L for 48 hrs by annexinV-FITC/PI staining based flow cytometric analysis (reference value: 0.22%); type: functional; settings: dose 24 µmol/L, at 24 µM
MGC-803 [28] = experiment: Induction of apoptosis in human MGC-803 cells assessed as necrotic cells at 16 micromol/L for 48 hrs by annexinV-FITC/PI staining based flow cytometric analysis (reference value: 0.22%); type: functional; settings: dose 16 µmol/L, at 16 µM

Compound: O=C(c1cccc(CN[C@@H]2C[C@H]2c2ccc(F)c(F)c2)c1)N1CCN(c2ccc(Cl)c(Cl)c2)CC1
- Activity (MGC-803 [1]): 29.22%
- Activity (MGC-803 [2]): Active
- Activity (MGC-803 [3]): 74.6%
- inhibition [4]: Dose-Dependent Effect
- viability at 16 µM (MGC-803 [5]): 57.5%
- Activity (MGC-803 [6]): 5.92%
- viability at 8 µM (MGC-803 [7]): 0.52%
- viability at 24 µM (MGC-803 [8]): 1.28%
- Activity (MGC-803 [9]): 37.89%
- IC50 [10]: 3.82 µM
- Activity (MGC-803 [11]): 0.02%
- Activity (MGC-803 [12]): Dose-Dependent Effect
- inhibition [13]: Dose-Dependent Effect
- Activity (MGC-803 [14]): Active
- Activity (MGC-803 [15]): 81%
- inhibition [16]: Dose-Dependent Effect
- inhibition [17]: Dose-Dependent Effect
- Activity (MGC-803 [18]): 31.69%
- Activity (MGC-803 [19]): Active
- IC50 [20]: 25.3 nM
- IC50 (MGC-803 [21]): 14.3 µM
- Activity (MGC-803 [22]): 9.98%
- Activity (MGC-803 [23]): 93.18%
- viability at 8 µM (MGC-803 [24]): 91%
- viability at 24 µM (MGC-803 [25]): 51.8%
- Activity (MGC-803 [26]): Active
- Activity (MGC-803 [27]): 0.38%
- Activity (MGC-803 [28]): 0.35%
